Results on one molecule are retold here after PMC12984539 (European journal of pharmacology, 2024).

In the assay the test system is μ receptor. As to the kind of experiment: Hemi-equilibrium simulation of buprenorphine antagonism of DAMGO. Particulars: chosen to match the experimental DAMGO concentration-response curve.

In the case of `C[C@@H](NC(=O)[C@@H](N)Cc1ccc(O)cc1)C(=O)NCC(=O)N(C)[C@@H](Cc1ccccc1)C(=O)NCCO` [DAMGO, [D-Ala^2, N-MePhe^4, Gly-ol]-enkephalin], the “τ (efficacy of the agonist in the system)” value is reported as 2.3.
